Measured values published in patent US20060116328A1, “Combined use of carnosinase inhibitor with l-carnosines and composition” (priority 2003, published 2006).
Values belong to the compound of their own block, whether it stands above or below them. Peptide text beside a SMILES is read from it.

How the values were obtained:
tissue carnosinase = target: T1, tissue carnosinase (Rattus norvegicus, UniProt Q6Q0N1); assay: Hydrolysis of L-carnosine and related substance with tissue carnosinase in the absence or presence of a carnosinase inhibitor; type: biochemical, male Hairless rats; conditions: pH 7.0, 37° C.
T1 construct: Partially purified tissue carnosinase as a solution in 0.1M phosphate buffer (pH 7.0) is prepared from the crude brain extracts; from tissue; host or cells: brain of male Hairless rats
T1 sequence (Q6Q0N1 1-475): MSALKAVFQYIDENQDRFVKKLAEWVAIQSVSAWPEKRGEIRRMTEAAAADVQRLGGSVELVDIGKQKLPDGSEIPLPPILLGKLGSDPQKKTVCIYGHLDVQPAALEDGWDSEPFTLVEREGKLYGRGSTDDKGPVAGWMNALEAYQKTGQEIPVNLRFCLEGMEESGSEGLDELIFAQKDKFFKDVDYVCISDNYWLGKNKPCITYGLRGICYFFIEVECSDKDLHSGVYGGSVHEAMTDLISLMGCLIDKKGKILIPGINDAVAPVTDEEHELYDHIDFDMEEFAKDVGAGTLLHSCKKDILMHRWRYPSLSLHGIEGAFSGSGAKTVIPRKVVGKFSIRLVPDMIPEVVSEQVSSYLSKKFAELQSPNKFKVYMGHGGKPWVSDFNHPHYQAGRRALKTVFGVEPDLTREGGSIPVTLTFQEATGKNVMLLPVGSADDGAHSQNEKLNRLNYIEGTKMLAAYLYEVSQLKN
Procedure: Partially purified tissue carnosinase as a solution in 0.1M phosphate buffer (pH 7.0) is prepared from the crude brain extracts of male Hairless rats by a reported procedure (Y. Courbebaisse, G. Langrand, J -F. Nicolay and M. A. Babizhayev, Proceeding of 19th IFSCC Congress, Australia, Vol. 3, 1996, p. 1-12; M. A. Babizhayev et al., Letters in Peptide Science, Vol. 5, 163, 1998). A solution of the substrate (450 μl) in 0.1M phosphate buffer (pH 7.0) is incubated with the diluted enzyme solution (50 μl) at 37° C. for 120 min. in the absence or in the presence of a carnosinase inhibitor. Portions of the reaction mixture are taken at the time points of 0, 2, 3, 4, 5, 10, 20, 40, 60 min and dansylated with dansyl chloride (5 mg of dansyl chloride/ml of acetonitrile solution) at 50° C. for 15 min. The each portion is subjected to HPLC analysis on a column C18DB using a gradient method (A=0.02N acetic acid/acetonitrile, 90/10; B=acetonitrile). The rate of the peptide hydrolysis is determined by following the decrease of the area under the curve (AUC) of the dansylated substrate.

skin = assay: Cosmetic liposome composition applied on the skin of elderly volunteers; type: in vivo, human; conditions: 10 elderly subjects, applied on the skin twice daily for 15 days
cells = conditions: L-carnosine supplementation of tissue cultures; cited from earlier work
mice = mice supplemented with L-carnosine; cited from earlier work
solid tumor cell lines = assay: Growth inhibition and induction of apoptosis in solid tumor cell lines; type: cell-based
Procedure: The experimental design, details of experimental procedure and human leukemia cell lines were essentially the same as those reported by Sekine et al. (Int. J. Cancer, Vol. 94, 485, 2001). The carnosinase inhibitor bestatine was used in the range of 5-15 μg/ml of concentration and the concentration of the applied carnosine varied from 5-20 mM . […] Our study was performed with this combination to examine whether bestatin+carnosine can also induce apoptosis in solid tumor cell lines.

[1] = substrate L-Carnosine 0.08 mM + inhibitor 0.5 mM

SMILES: NCC(=O)N[C@@H](Cc1cnc[nH]1)C(=O)O [Gly-L-His] (H-Gly-His-OH)
- rate of hydrolysis (tissue carnosinase; [1]): 6e-06 mol/min

SMILES: NCCC(=O)N[C@@H](Cc1c[nH]cn1)C(=O)O [L-Carnosine, β-alanyl-L-histidine]
- rate of hydrolysis (tissue carnosinase; L-Carnosine 0.08 mM + L-carnosine 0.3 mM (blank test)): 7.8e-05 mol/min
- rate of hydrolysis (tissue carnosinase; substrate L-Carnosine 0.08 mM alone (blank test)): 3.4e-05 mol/min
- rate of hydrolysis (tissue carnosinase; substrate L-Carnosine 0.3 mM alone (blank test)): 7.8e-05 mol/min
- skin pigmentation (skin): only a little whitening activity
- increase in cellular life span (cells): 67%
- average life span longer than non-treated mice (mice): 20%

SMILES: O=C(O)[C@H](Cc1cnc[nH]1)NC(=O)[C@@H]1CCCN1 [L-Pro-L-His]
- rate of hydrolysis (tissue carnosinase; [1]): 9e-06 mol/min

SMILES: COC(=O)[C@H](CC(C)C)NC(=O)[C@@H](O)[C@H](N)Cc1ccccc1 [bestatin methyl ester]
- cell growth (solid tumor cell lines; used with L-carnosine, compared with L-carnosine only): inhibited cell growth more clearly than the case where only L-carnosine is used

Further lines, with some results ahead:

- rate of hydrolysis (tissue carnosinase; substrate N-Acetyl-L-carnosine 0.08 mM alone (blank test)): 1e-06 mol/min
SMILES: CC(=O)NCCC(=O)N[C@@H](Cc1cnc[nH]1)C(=O)O [N-Acetyl-L-carnosine, N-acetyl-L-carnosine]

- rate of hydrolysis (tissue carnosinase; [1]): 3e-06 mol/min
- rate of hydrolysis (tissue carnosinase; substrate N-Acetyl-L-carnosine 0.08 mM + inhibitor 0.5 mM): 3.5e-07 mol/min
SMILES: CC(=O)NCCC(=O)O [N-acetyl-β-alanine]

- rate of hydrolysis (tissue carnosinase; substrate L-Carnosine 0.08 mM + inhibitor 0.5 nM): 2e-06 mol/min
SMILES: CC(C)C[C@H](NC(=O)[C@@H](O)[C@H](N)Cc1ccccc1)C(=O)O [bestatine, bestatin, reference compound]
- growth inhibition and induction of apoptosis (solid tumor cell lines; bestatine 5-15 μg/ml, carnosine 5-20 mM): neither direct growth inhibition nor induction of apoptosis

- rate of hydrolysis (tissue carnosinase; [1]): 5e-06 mol/min
- rate of hydrolysis (tissue carnosinase; substrate L-Carnosine 0.3 mM + inhibitor 0.5 mM): 5.4e-05 mol/min
SMILES: NCCC(=O)O [β-alanine]

- rate of hydrolysis (tissue carnosinase; [1]): 4.5e-06 mol/min
SMILES: NCCCC(=O)NCCc1c[nH]cn1 [γ-aminobutyryl-histamine, γ-aminobutyrylhistamine]
